In publication PMC3884839, “Pharmacokinetics and pharmacodynamics utilizing unbound target tissue exposure as part of a disposition-based rationale for lead optimization of benzoxaboroles in the treatment of Stage 2 Human African Trypanosomiasis” (Parasitology, 2013):

Columns and labels:
[1] = Binding to human plasma protein by rapid equilibrium dialysis; assay type: in vitro ADME; details: 1 μg mL^−1
Description: Binding to plasma proteins, brain homogenates or proteins in serum-fortified HMI-9 media was determined by rapid equilibrium dialysis (RED) (Pierce, Rockford, IL) using a 48-well plate-based format according to the manufacturer's instructions. Briefly, test compound was added to fresh plasma (Bioreclamation, Liverpool, NY) at the required concentrations, freshly prepared brain homogenate or media. Duplicate aliquots of each sample were transferred into the sample chambers of the RED devices, and dialysis buffer (BupH PBS) was added to the buffer chambers. The plates were sealed and incubated at 37 °C for 4 h. After dialysis, samples collected from the buffer and tissue chambers were treated with ice-cold methanol (3 volumes for plasma or HMI-9 media, 4 volumes for brain) to precipitate proteins. The treated samples were centrifuged for 10 min at approximately 3000 g at 15 °C. The supernatants were assayed for test compound by LC-MSMS. Calibration standards and quality control samples were prepared in matched matrix and assayed with samples. Values for unbound and bound fractions and mass balance were calculated. Concordance of binding for each batch of plasma was confirmed by assay of warfarin, imipramine and carbamezapine. Acceptance criterion for mass balance was 70–120%.

T. b. brucei = assay: In vitro reversibility of trypanocidal effects (transient exposure); assay type: cell-based, Trypanosoma brucei brucei
Description: The time and concentration dependency for oxaborole-mediated killing of T. b. brucei, under constant (time-kill) and transient (reversibility) drug-pressure, was determined as described previously (Nare et al. 2010).
Reversibility was assessed as the ability T. b. brucei parasites to recover from transient exposure (0–24 h) to test benzoxaboroles (0·02–10 μg mL^−1). Trypanosomes were seeded in clear 96-well ‘V’-bottom plates at a density of 1×10^5 parasites per well; one plate was prepared for each time-point. After the designated incubation time, each plate was removed from the incubator and centrifuged at 4400 g for 5 min to sediment parasites. The supernatant containing the test compound was aspirated and three washing cycles were performed where 100 μl of warmed HMI-9 media was added to each well and then aspirated. […] Thus, each concentration and time-point was evaluated in triplicate. Each plate was incubated for a further 72 h, whereupon, trypanocidal activity was determined using resazurin (Sigma-Aldrich, St. Louis, MO) where 20 μl of a 25 mg/100 mL stock in PBS was added, incubated for an additional 4–6 h and fluorescence measured using the EnVision plate reader (excitation wavelength, 530 nm and emission wavelength, 590 nm).

[2] = Unbound brain exposure (AUC0-24) in uninfected mice after once daily oral SCYX-7158; assay type: in vivo, mouse; details: 12·5 mg kg^−1 once daily
Description: The CNS disposition and pharmacokinetics of the benzoxaboroles were evaluated in infected and uninfected mice following oral administration. In vivo phases of single-dose rodent PK studies were performed at Vivisource (Waltham, MA) following Institutional Animal Care and Use Committee (IACUC) review in an Association for Assessment and Accreditation of Laboratory Animal Care International (AAALAC)-approved facility. Studies in Trypanosoma brucei brucei (TREU 667 strain) infected mice, or uninfected satellite animals, were performed after IACUC review at Pace University (NewYork, NY).
Male CD-1 or female Swiss Webster mice (approximately 25 g) were administered test compounds by oral gavage either once (QD) or twice per day (Q12 h) with doses ranging between 6 and 100 mg kg^−1 as described below. All compounds were formulated as an in situ sodium salt in 2% (v/v) ethanol, 5% (m/v) dextrose, to yield typically clear colourless solutions that were administered at 4 mL kg^−1. Blood samples for pharmacokinetic studies were collected into polypropylene tubes containing K2EDTA anticoagulant and stored on wet ice until centrifuged and processed to plasma. Plasma was stored at −80 °C. Blood samples from mice were collected via cardiac puncture under terminal anaesthesia. Rodents were euthanized in a CO2 chamber before collection of terminal blood or tissue samples. Brain tissues were blotted dry and stored at approximately −80 °C.
Pharmacokinetic studies were performed in CD-1 mice to establish AUC0–24 following single and 7×once daily oral doses of 6·25, 12·5, 25, 50 and 100 mg kg^−1 SCYX-7158 (Jacobs et al. [2011]). […] Values for unbound AUC0–24 in brain were calculated using the single and steady-state exposure data (non-parametric super-positioning indicated steady-state was mostly attained on day 2 so day 7 data were employed for days 2–7 rather than modelled data for days 2–6) and compared to the target unbound AUC from the in vitro reversibility studies (Fig. 9).

T. b. brucei (TREU 667) = assay: Murine model of Stage 2 (CNS) HAT; assay type: in vivo, mouse
Description: The efficacy of benzoxaboroles was evaluated in a murine model of Stage 2 (CNS) HAT (Nare et al. [2010]; Jacobs et al. [2011]). In summary, mice (n = 10 per group) were infected by bolus i.p. injection of 1×10^4 T. b. brucei (TREU 667) parasites. A single bolus i.p. dose (10 mg kg^-1) of berenil (Sigma-Aldrich, St. Louis, MO) was administered on day 4 as a positive treatment control for haemolymphatic-stage infection. Infection of the remaining animals proceeded for 21 days to establish a CNS infection before treatment with either a single dose of berenil (as above) or test compounds by the oral route either once or twice daily over 7 days at the doses indicated below. Animals were checked at least weekly for parasitaemia and were immediately removed from cages and euthanized upon recrudescence. Animals were considered cured if they were […] for at least 180 days after treatment.

[3] = 6·25 mg kg^−1 day^−1 oral for 7 days

Mass balance [1]: 110%
time unbound concentration in brain tissue exceeded IC50u on each day [2]: 10 h
time unbound concentration in brain tissue exceeded MICu on each day [2]: 4 h
unbound AUC0–24 as percentage of the target MICu AUC [2]: approximately 50%
Structure (SMILES): CC1(C)OB(O)c2cc(NC(=O)c3ccc(F)cc3C(F)(F)F)ccc21 [SCYX-7158]
reduction in survival relative to untreated control parasites (T. b. brucei; Cu 0·123 μg mL^−1 (Ct 0·313 μg mL^−1), 24 h incubation): 24%
exposure time tolerated without impact on survival (T. b. brucei; Cu 1·11 μg mL^−1 (Ct 1·25 μg mL)): 8 h
cure outcome (T. b. brucei (TREU 667); 50 mg kg^−1, single oral dose): No animals were cured
cure rate (T. b. brucei (TREU 667); 50 mg kg^−1 oral, ⩾3 days of dosing): 100%
day of recrudescence of parasitaemia after infection (T. b. brucei (TREU 667); [3]): ~35 days
treatment outcome (T. b. brucei (TREU 667); [3]): cleared of haemolymphatic T. b. brucei but demonstrated recrudescence of parasitaemia
cure rate (T. b. brucei (TREU 667); 12·5 mg kg^−1 oral once daily for 7 days): 80%
cure outcome (T. b. brucei (TREU 667); ⩾25 mg kg^−1 day^−1 oral for 7 days): complete cures
